Reference: US11053204B2, “Pyrimidinyloxy benzene derivatives as herbicides” (FMC Corporation, priority 2015, dated 2021)

What was measured:
Assay type in all cases: in vivo
[1] = test system: ryegrass, Italian (Italian ryegrass, Lolium multiflorum); experiment: Test C postemergence, plant response rating; details: Lolium multiflorum, post-emergence
Procedure, shortened: (§1)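 Pre-emergence: seeds sown in loam soil–sand blend or silt loam and sprayed with test chemicals in a non-phytotoxic solvent mixture with surfactant. Post-emergence: plants 2 to 18 cm (1- to 4-leaf stage) in peat-based potting medium, same formulation. Greenhouse 13 to 15 d; visual rating 0 (no effect) to 100 (complete control) versus controls.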

[2] = test system: nutsedge, yellow (yellow nutsedge, Cyperus esculentus); experiment: Test C postemergence, plant response rating; details: Cyperus, post-emergence
Procedure, shortened: as §1

[3] = test system: soybean (Glycine max); experiment: Test C postemergence, plant response rating; details: Glycine max, post-emergence
Procedure, shortened: as §1

[4] = test system: galium (catchweed bedstraw, Galium aparine); experiment: Test C postemergence, plant response rating; details: Galium, post-emergence
Procedure, shortened: as §1

[5] = test system: wheat (winter wheat, Triticum aestivum); experiment: Test C postemergence, plant response rating; details: Triticum aestivum, post-emergence
Procedure, shortened: as §1

[6] = test system: crabgrass, large (large crabgrass, Digitaria sanguinalis); experiment: Test C postemergence, plant response rating; details: Digitaria sanguinalis, post-emergence
Procedure, shortened: as §1

[7] = test system: foxtail, giant (giant foxtail, Setaria faberii); experiment: Test C postemergence, plant response rating; details: Setaria faberi, post-emergence
Procedure, shortened: as §1

[8] = test system: lambsquarters (Chenopodium album); experiment: Test C postemergence, plant response rating; details: Chenopodium album, post-emergence
Procedure, shortened: as §1

[9] = test system: oat, wild (wild oat Avena fatua); experiment: Test C postemergence, plant response rating; details: Avena fatua, post-emergence
Procedure, shortened: as §1

[10] = test system: chickweed (common chickweed, Stellaria media); experiment: Test C postemergence, plant response rating; details: Stellaria media, post-emergence
Procedure, shortened: as §1

[11] = test system: blackgrass (Alopecurus myosuroides); experiment: Test C postemergence, plant response rating; details: Alopecurus myosuroides, post-emergence
Procedure, shortened: as §1

[12] = test system: corn (Zea mays); experiment: Test C postemergence, plant response rating; details: Zea mays, post-emergence
Procedure, shortened: as §1

[13] = test system: kochia (Kochia scoparia); experiment: Test A preemergence, visual injury rating; details: Bassia scoparia, pre-emergence, 240 h, 0 to 100 scale (0 no effect, 100 complete control), read-out: Kochia plant response rating
Procedure, shortened: (§2)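 Visual 0–100 rating (100 = complete control) taken about 10 d post-treatment relative to untreated checks. Preemergence: directed soil spray on sown loam/sand pots. Postemergence: seedlings 2–10 cm, 1–2 leaf. Non-phytotoxic solvent formulation with surfactant.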

[14] = test system: Italian ryegrass (Lolium multiflorum); experiment: Test A preemergence, visual injury rating; details: Lolium multiflorum, pre-emergence, 240 h, 0 to 100 scale (0 no effect, 100 complete control), read-out: Ryegrass, Italian plant response rating
Procedure, shortened: as §2

[15] = test system: ragweed (common ragweed, Ambrosia elatior); experiment: Test A preemergence, visual injury rating; details: Ambrosia artemisiifolia, pre-emergence, 240 h, 0 to 100 scale (0 no effect, 100 complete control), read-out: Ragweed plant response rating
Procedure, shortened: as §2

[16] = test system: barnyardgrass (Echinochloa crus-galli); experiment: Test A preemergence, visual injury rating; details: Echinochloa crus-galli, pre-emergence, 240 h, 0 to 100 scale (0 no effect, 100 complete control), read-out: Barnyardgrass plant response rating
Procedure, shortened: as §2

[17] = test system: giant foxtail (Setaria faberii); experiment: Test A preemergence, visual injury rating; details: Setaria faberi, pre-emergence, 240 h, 0 to 100 scale (0 no effect, 100 complete control), read-out: Foxtail, Giant plant response rating
Procedure, shortened: as §2

[18] = test system: pigweed (Amaranthus retroflexus); experiment: Test A preemergence, visual injury rating; details: Amaranthus retroflexus, pre-emergence, 240 h, 0 to 100 scale (0 no effect, 100 complete control), read-out: Pigweed plant response rating
Procedure, shortened: as §2

[19] = 62 g ai/ha, scale 0 to 100 (0 no effect, 100 complete control)
[20] = 125 g ai/ha, scale 0 to 100 (0 no effect, 100 complete control)

## O=C(OCC(F)(F)C(F)(F)F)c1c(Br)cccc1Oc1ncc(Cl)cn1 [Compound 23, 2,2,3,3,3-pentafluoropropyl 2-bromo-6-[(5-chloro-2-pyrimidinyl)oxy]benzoate]
[1]; 16 g ai/ha, scale 0 to 100
  pest or weed control at 16 g/ha: 0%
[1]; 31 g ai/ha, scale 0 to 100
  pest or weed control at 31 g/ha: 0%
[1]; [19]
  pest or weed control at 62 g/ha: 5%
[1]; [20]
  pest or weed control at 125 g/ha: 5%
[2]; 16 g ai/ha, scale 0 to 100
  pest or weed control at 16 g/ha: 0%
[2]; 31 g ai/ha, scale 0 to 100
  pest or weed control at 31 g/ha: 0%
[2]; [19]
  pest or weed control at 62 g/ha: 5%
[2]; [20]
  pest or weed control at 125 g/ha: 10%
[3]; 16 g ai/ha, scale 0 to 100
  plant injury at 16 g/ha: 20%
[3]; 31 g ai/ha, scale 0 to 100
  plant injury at 31 g/ha: 30%
[3]; [19]
  plant injury at 62 g/ha: 70%
[3]; [20]
  plant injury at 125 g/ha: 35%
[4]; 16 g ai/ha, scale 0 to 100
  pest or weed control at 16 g/ha: 50%
[4]; 31 g ai/ha, scale 0 to 100
  pest or weed control at 31 g/ha: 55%
[4]; [19]
  pest or weed control at 62 g/ha: 55%
[4]; [20]
  pest or weed control at 125 g/ha: 80%
[5]; 16 g ai/ha, scale 0 to 100
  plant injury at 16 g/ha: 0%
[5]; 31 g ai/ha, scale 0 to 100
  plant injury at 31 g/ha: 0%
[5]; 62 g ai/ha, scale 0 to 100 (0 no effect, 100 complete control), read-out: Wheat plant response rating
  plant injury at 62 g/ha: 0%
[5]; [20]
  plant injury at 125 g/ha: 0%
[6]; 16 g ai/ha, scale 0 to 100
  pest or weed control at 16 g/ha: 10%
[6]; 31 g ai/ha, scale 0 to 100
  pest or weed control at 31 g/ha: 10%
[6]; [19]
  pest or weed control at 62 g/ha: 20%
[6]; [20]
  pest or weed control at 125 g/ha: 25%
[7]; 16 g ai/ha, scale 0 to 100
  pest or weed control at 16 g/ha: 10%
[7]; 31 g ai/ha, scale 0 to 100
  pest or weed control at 31 g/ha: 35%
[7]; [19]
  pest or weed control at 62 g/ha: 25%
[7]; [20]
  pest or weed control at 125 g/ha: 30%
[8]; 16 g ai/ha, scale 0 to 100
  pest or weed control at 16 g/ha: 25%
[8]; 31 g ai/ha, scale 0 to 100
  pest or weed control at 31 g/ha: 55%
[8]; [19]
  pest or weed control at 62 g/ha: 65%
[8]; [20]
  pest or weed control at 125 g/ha: 80%
[9]; 16 g ai/ha, scale 0 to 100
  pest or weed control at 16 g/ha: 5%
[9]; 31 g ai/ha, scale 0 to 100
  pest or weed control at 31 g/ha: 5%
[9]; [19]
  pest or weed control at 62 g/ha: 10%
[9]; [20]
  pest or weed control at 125 g/ha: 5%
[10]; 16 g ai/ha, scale 0 to 100
  pest or weed control at 16 g/ha: 5%
[10]; 31 g ai/ha, scale 0 to 100
  pest or weed control at 31 g/ha: 50%
[10]; [19]
  pest or weed control at 62 g/ha: 50%
[10]; [20]
  pest or weed control at 125 g/ha: 85%
[11]; 16 g ai/ha, scale 0 to 100
  pest or weed control at 16 g/ha: 0%
[11]; 31 g ai/ha, scale 0 to 100
  pest or weed control at 31 g/ha: 5%
[11]; [19]
  pest or weed control at 62 g/ha: 15%
[11]; [20]
  pest or weed control at 125 g/ha: 20%
[12]; 16 g ai/ha, scale 0 to 100
  Corn plant response rating (crop injury, 0 = no effect, 100 = complete kill) at 16 g/ha: 5%
[12]; 31 g ai/ha, scale 0 to 100
  Corn plant response rating (crop injury, 0 = no effect, 100 = complete kill) at 31 g/ha: 5%
[12]; [19]
  plant injury at 62 g/ha: 5%
[12]; [20]
  plant injury at 125 g/ha: 10%
[13]; 125 g ai/ha
  pest or weed control at 125 g/ha: 0%
[13]; 500 g ai/ha
  pest or weed control at 500 g/ha: 50%
[14]; 125 g ai/ha
  pest or weed control at 125 g/ha: 0%
[14]; 500 g ai/ha
  pest or weed control at 500 g/ha: 40%
[15]; 125 g ai/ha
  pest or weed control at 125 g/ha: 0%
[15]; 500 g ai/ha
  pest or weed control at 500 g/ha: 10%
[16]; 125 g ai/ha
  pest or weed control at 125 g/ha: 20%
[16]; 500 g ai/ha
  pest or weed control at 500 g/ha: 70%
[17]; 125 g ai/ha
  pest or weed control at 125 g/ha: 70%
[17]; 500 g ai/ha
  pest or weed control at 500 g/ha: 100%
[18]; 125 g ai/ha
  pest or weed control at 125 g/ha: 100%
[18]; 500 g ai/ha
  pest or weed control at 500 g/ha: 100%
